Source: article PMC9170688, “Gametocyte-specific and all-blood-stage transmission-blocking chemotypes discovered from high throughput screening on Plasmodium falciparum gametocytes” (Communications Biology, 2022)
Like-named read-outs stand apart in the source and are kept apart here.

System: P. falciparum NF54 male gametocytes (stage V)
Assay: Male gamete exflagellation assay
Format: cell-based, Plasmodium falciparum
Conditions: for Inhibition of male exflagellation at 1 µM: 48 h; for activity at 1 µM: Plasmodium falciparum
Description: The above selected 30 compounds were subjected to a phenotypic male gamete exflagellation assay. This assay measures the viability of male gametocytes by quantitating the final step of maturation into motile microgametes in vitro[24]. This process naturally occurs in the mosquito gut within minutes from the blood meal. The acquisition of time lapse videos of gamete motility in bright field microscopy and the subsequent analysis to count exflagellation centres were performed in an automated HTS format in 384-well plates. The compounds were tested in two independent biological replicates at the concentration of 1 µM. […] The results of this study led to the identification of 16 compounds with anti-exflagellation activity (Fig. 4). […] The standard membrane feeding assay (SMFA) is used to measure the parasite transmission through mosquito. In this assay, mature stage V gametocytes of the P. falciparum strain NF54-hsp70-luc were treated with 1 and 10 µM of the nine selected compounds for 24 h, added with human red blood cells and serum to achieve a haematocrit of 50% and then fed to mosquitoes. Luminescence was analyzed in […] 8 days post-feeding.
Asexual parasites of the NF54 line, kindly obtained from Elena Levashina’s laboratory (Max Plank Institute for Infection Biology, Berlin, Germany), were seeded at 1% total parasitemia and grown for 16 days changing medium every day until development of stage V gametocytes (about 1–2% of stage V gametocytemia). 100 µl of gametocyte culture was seeded in each well of a 96 well-plate and 100 µl of 2× concentration of compounds or DMSO as control were added to each well to achieve the desired final concentration. Assay plates were incubated for 48 h at 37 °C in 4% CO2, 3% O2, and 93% N2 modified atmosphere. After the incubation period, 100 µl of medium were removed from each well and the other 100 µl were transferred to a black imaging 96 well plate (ibidi) containing 100 µl of complete medium supplemented with 40 µM of xanthurenic acid. After 15 min, exflagellation events were captured by three ten-second videos each well with an Olympus IX83 inverted microscope with a UPLSAPO 10× N.A. 0.75 objective (Olympus, Japan), equipped with a Hamamatsu ORCA-Flash 4.0 V3 camera. Each video was analyzed using the Icy bio-image analysis software (http://icy.bioimageanalysis.org/) to count the number of exflagellation events.

[1] = NF54, read-out: Exflagellation @ 1 uM (% of DMSO) 1
[2] = NF54, read-out: Exflagellation @ 1 uM (% of DMSO) 2

| Compound | Inhibition of male exflagellation at 1 µM (1 µM, Replicate 1) | Inhibition of male exflagellation at 1 µM (1 µM, Replicate 2) | activity at 1 µM [1] | activity at 1 µM [2] | male gamete exflagellation reduced to (1 µM) |
| --- | --- | --- | --- | --- | --- |
| OC(c1ccc(Cl)cc1)C1CCN(CCCN2CCC(C(O)c3ccc(Cl)cc3)CC2)CC1 (centres unmarked) [Compound 13] | 15.4 | 64.1 | 15.4% | 64.1% | – |
| Cc1ccc2nc(-c3ccccc3)c(CSc3cccc[n+]3[O-])n2c1 [Compound 16] | 23.1 | 19.2 | 23.1% | 19.2% | – |
| COc1ccccc1Cn1cc2c(-c3ccc(F)cc3)nnc-2c2cc(OC)c(OC)cc21 [Compound 31] | 80.597 | 111.628 | 80.6% | 112% | – |
| Clc1ccc(Nc2nc(-c3ccccn3)cs2)nc1 [Compound 39] | 30.5085 | 73.2558 | 30.5% | 73.3% | – |
| COc1cc(CNCC2CCNCC2)ccc1OCc1cccc(Cl)c1 [Compound 53] | 19.2 | 35.9 | 19.2% | 35.9% | 20–30% |
| Cc1ccc(Nc2cc(C)nc(Nc3ccc(NC(=O)c4cc5ccccc5oc4=O)cc3)n2)cc1 [Compound 63] | 62.7119 | 21.3333 | 62.7% | 21.3% | – |
| COc1ccc(Nc2cc(C)nc(Nc3ccc(NC(=O)c4cc(C)cc(C)c4)cc3)n2)cc1 [Compound 64] | 108.475 | 123.2 | 108% | 123% | – |
| COc1ccc(NC(=O)Nc2ccc(Nc3nc(C)cc(Nc4ccc(C)cc4)n3)cc2)cc1 [Compound 65] | 5.085 | 52.8 | 5.08% | 52.8% | – |
| O=C(c1ccc([N+](=O)[O-])o1)N1CCC(Cn2cnc3ccccc32)CC1 [Compound 69] | – | – | 17.3% | 57.7% | – |
